Calls of active or inactive are those of the source. No cut-off for these calls is given here.
How the values were obtained:
[1] = test system: SK-N-SH; test: Growth inhibition of human SK-N-SH cells after 72 hrs by MTT assay; format: functional, cell-based
[2] = Cell cycle arrest in human HL60 cells assessed as apoptotic cells at 10 uM after 24 hrs by propidium iodide-staining based flow cytometry (reference value: 3%); format: functional; conditions: HL-60
[3] = test system: HL-60; test: Induction of apoptosis in human HL60 cells assessed as effect on morphology at 5 to 20 uM after 24 hrs by phase-contrast microscopy; format: functional, cell-based
[4] = Cell cycle arrest in human HL60 cells assessed as accumulation at G1 phase at 5 uM after 24 hrs by propidium iodide-staining based flow cytometry (reference value: 36%); format: functional; conditions: HL-60
[5] = Cell cycle arrest in human HL60 cells assessed as apoptotic cells at 20 uM after 24 hrs by propidium iodide-staining based flow cytometry (reference value: 3%); format: functional; conditions: HL-60
[6] = Cell cycle arrest in human HL60 cells assessed as accumulation at G2 phase at 20 uM after 24 hrs by propidium iodide-staining based flow cytometry (reference value: […]); format: functional; conditions: HL-60
[7] = Cell cycle arrest in human HL60 cells assessed as accumulation at S phase at 5 uM after 24 hrs by propidium iodide-staining based flow cytometry (reference value: 63%); format: functional; conditions: HL-60
[8] = Cell cycle arrest in human HL60 cells assessed as apoptotic cells at 15 uM after 24 hrs by propidium iodide-staining based flow cytometry (reference value: 3%); format: functional; conditions: HL-60
[9] = Growth inhibition of human HL60 cells after 72 hrs by MTT assay; format: functional, cell-based; conditions: HL-60, 72 h
[10] = Growth inhibition of human MIAPaCa2 cells at 30 uM after 72 hrs by MTT assay; format: functional; conditions: MIA PaCa-2, 72 h, read-out: GI
[11] = test system: SK-N-SH; test: Growth inhibition of human SK-N-SH cells at 30 uM after 72 hrs by MTT assay; format: functional; conditions: read-out: GI
[12] = Growth inhibition of human HL60 cells at 30 uM after 72 hrs by MTT assay; format: functional; conditions: HL-60, 72 h, read-out: GI
[13] = test system: HL-60; test: Reduction in mitochondrial membrane potential in human HL60 cells at 5 uM after 24 hrs by Rh-123-staining based flow cytometry (reference value: 7%); format: functional; set-up: scale not given: the % may be the effect or the level left
[14] = Cell cycle arrest in human HL60 cells assessed as accumulation at G1 phase at 20 uM after 24 hrs by propidium iodide-staining based flow cytometry (reference value: 36%); format: functional; conditions: HL-60
[15] = Cell cycle arrest in human HL60 cells assessed as accumulation at G2 phase at 5 uM after 24 hrs by propidium iodide-staining based flow cytometry (reference value: 1%); format: functional; conditions: HL-60
[16] = test system: HepG2; test: Growth inhibition of human HepG2 cells after 72 hrs by MTT assay; format: functional, cell-based; conditions: HepG2, 72 h
[17] = Cell cycle arrest in human HL60 cells assessed as accumulation at S phase at 15 uM after 24 hrs by propidium iodide-staining based flow cytometry (reference value: 63%); format: functional; conditions: HL-60
[18] = test system: MCF7; test: Growth inhibition of human MCF7 cells at 50 uM after 72 hrs by MTT assay; format: functional; conditions: MCF7, 72 h, read-out: GI
[19] = test system: HepG2; test: Growth inhibition of human HepG2 cells at 50 uM after 72 hrs by MTT assay; format: functional; conditions: HepG2, 72 h, read-out: GI
[20] = test system: MCF7; test: Growth inhibition of human MCF7 cells after 72 hrs by MTT assay; format: functional, cell-based; conditions: MCF7, 72 h
[21] = test system: HL-60; test: Reduction in mitochondrial membrane potential in human HL60 cells at 15 uM after 24 hrs by Rh-123-staining based flow cytometry (reference value: 7%); format: functional; set-up: scale not given: the % may be the effect or the level left
[22] = Cell cycle arrest in human HL60 cells assessed as accumulation at S phase at 10 uM after 24 hrs by propidium iodide-staining based flow cytometry (reference value: 63%); format: functional; conditions: HL-60
[23] = test system: HL-60; test: Induction of apoptosis in human HL60 cells assessed as apoptotic bodies formation after 24 hrs by Hoechst 33342-staining based fluorescence microscopy; format: functional, cell-based
[24] = Growth inhibition of human HL60 cells at 50 uM after 72 hrs by MTT assay; format: functional; conditions: HL-60, 72 h, read-out: GI
[25] = Growth inhibition of human MIAPaCa2 cells at 50 uM after 72 hrs by MTT assay; format: functional; conditions: MIA PaCa-2, 72 h, read-out: GI
[26] = test system: HL-60; test: Reduction in mitochondrial membrane potential in human HL60 cells at 10 uM after 24 hrs by Rh-123-staining based flow cytometry (reference value: 7%); format: functional; set-up: scale not given: the % may be the effect or the level left
[27] = Cell cycle arrest in human HL60 cells assessed as accumulation at G1 phase at 10 uM after 24 hrs by propidium iodide-staining based flow cytometry (reference value: 36%); format: functional; conditions: HL-60
[28] = test system: HL-60; test: Reduction in mitochondrial membrane potential in human HL60 cells at 20 uM after 24 hrs by Rh-123-staining based flow cytometry (reference value: 7%); format: functional; set-up: scale not given: the % may be the effect or the level left
[29] = Cell cycle arrest in human HL60 cells assessed as apoptotic cells at 5 uM after 24 hrs by propidium iodide-staining based flow cytometry (reference value: 3%); format: functional; conditions: HL-60
[30] = Growth inhibition of human HL60 cells after 24 hrs by MTT assay; format: functional, cell-based; conditions: HL-60, 24 h
[31] = Cell cycle arrest in human HL60 cells assessed as accumulation at G2 phase at 15 uM after 24 hrs by propidium iodide-staining based flow cytometry (reference value: […]); format: functional; conditions: HL-60
[32] = test system: MCF7; test: Growth inhibition of human MCF7 cells at 30 uM after 72 hrs by MTT assay; format: functional; conditions: MCF7, 72 h, read-out: GI
[33] = test system: HepG2; test: Growth inhibition of human HepG2 cells at 30 uM after 72 hrs by MTT assay; format: functional; conditions: HepG2, 72 h, read-out: GI
[34] = Growth inhibition of human MIAPaCa2 cells after 72 hrs by MTT assay; format: functional, cell-based; conditions: MIA PaCa-2, 72 h
[35] = Cell cycle arrest in human HL60 cells assessed as accumulation at G2 phase at 10 uM after 24 hrs by propidium iodide-staining based flow cytometry (reference value: 1%); format: functional; conditions: HL-60
[36] = Cell cycle arrest in human HL60 cells assessed as accumulation at S phase at 20 uM after 24 hrs by propidium iodide-staining based flow cytometry (reference value: […]); format: functional; conditions: HL-60
[37] = Cell cycle arrest in human HL60 cells assessed as accumulation at G1 phase at 15 uM after 24 hrs by propidium iodide-staining based flow cytometry (reference value: 36%); format: functional; conditions: HL-60
[38] = test system: SK-N-SH; test: Growth inhibition of human SK-N-SH cells at 50 uM after 72 hrs by MTT assay; format: functional; conditions: read-out: GI
[39] = test system: HL-60; test: Induction of apoptosis in human HL60 cells assessed as apoptotic bodies formation at 5 to 20 uM after 24 hrs by Hoechst 33342-staining based fluorescence microscopy; format: functional, cell-based

Row | IC50 [1] [µM] | IC50 [16] [µM] | IC50 [20] [µM] | SMILES | Activity [2] [%] | Activity [3] | Activity [4] [%] | Activity [5] [%] | Activity [6] [%] | Activity [7] [%] | Activity [8] [%] | IC50 [9] [µM] | inhibition of growth at 30 µM [10] [%] | inhibition of growth at 30 µM [11] [%] | inhibition of growth at 30 µM [12] [%] | Activity [13] [%] | Activity [14] [%] | Activity [15] [%] | Activity [17] [%] | inhibition of growth at 50 µM [18] [%] | inhibition of growth at 50 µM [19] [%] | also measured
1 | 14 | 20 | 12 | C=CCc1cc(O)c(O)c(CN2CCNCC2)c1 | 11 | Active | 41 | 88 | 4 | 57 | 27 | 2 | 82.8 | 65.3 | 92.5 | 38 | 52 | 2 | 39 | 74.2 | 73 | Activity [21]: 45%; Activity [22]: 37%; Activity [23]: Dose-dependent effect; inhibition of growth at 50 µM [24]: 94.4%; inhibition of growth at 50 µM [25]: 85.6%; Activity [26]: 44%; Activity [27]: 59%; Activity [28]: 46%; Activity [29]: 8%; IC50 [30]: 12 µM; Activity [31]: 11%; inhibition of growth at 30 µM [32]: 69.2%; inhibition of growth at 30 µM [33]: 64.2%; IC50 [34]: 4 µM; Activity [35]: 4%; Activity [36]: 44%; Activity [37]: 50%; inhibition of growth at 50 µM [38]: 69.9%
2 | 11 | 16 | 9 | C=CCc1cc(O)c(O)c(CN2CCN(c3ccccc3O)CC2)c1 | 12 | Active | 47 | 89 | 5 | 52 | 52 | 1 | 88.7 | 69.2 | 90.3 | 38 | 51 | 1 | 78 | 79.7 | 82.8 | Activity [21]: 59%; Activity [22]: 52%; Activity [23]: Dose-dependent effect; inhibition of growth at 50 µM [24]: 93.5%; inhibition of growth at 50 µM [25]: 89.9%; Activity [26]: 44%; Activity [27]: 41%; Activity [28]: 71%; Activity [29]: 7%; IC50 [30]: 10 µM; Activity [31]: 1%; inhibition of growth at 30 µM [32]: 77.7%; inhibition of growth at 30 µM [33]: 72.8%; IC50 [34]: 3 µM; Activity [35]: 7%; Activity [36]: 44%; Activity [37]: 21%; inhibition of growth at 50 µM [38]: 79.5%
3 | > 30 | > 30 | > 30 | C=CCc1ccc(O)c(O)c1 [HYDROXYCHAVICOL] | 9 | Active | 35 | 10 | 6 | 57 | 10 | 3 | 41.7 | 34.2 | 88.8 | 17 | 27 | 8 | 61 | 44.1 | 29.3 | Activity [21]: 26%; Activity [22]: 54%; inhibition of growth at 50 µM [24]: 92.4%; Activity [39]: Active; inhibition of growth at 50 µM [25]: 42.8%; Activity [26]: 22%; Activity [27]: 37%; Activity [28]: 42%; Activity [29]: 5%; IC50 [30]: 50 µM; Activity [31]: 22%; inhibition of growth at 30 µM [32]: 36.9%; inhibition of growth at 30 µM [33]: 27.2%; IC50 [34]: > 30 µM; Activity [35]: 9%; Activity [36]: 67%; Activity [37]: 17%; inhibition of growth at 50 µM [38]: 71.7%

— ChEMBL document CHEMBL3407403, “Synthetic modification of hydroxychavicol by Mannich reaction and alkyne-azide cycloaddition derivatives depicting cytotoxic potential” (Eur J Med Chem, 2015)
